Data taken from patent US7395112B2, “Method and apparatus for treating tumors using low strength electric fields” (priority 2002, dated 2008).

How the values were obtained:
[1] = system: B16-F10.9 melanoma; assay: LEFCT-EC in mice bearing subcutaneous B16-F10.9 melanoma; type: in vivo, C57BL/6 mice; settings: for Tumor size (mean ± standard error): 7 days after treatment
Method: Animals: C57BL/6 male mice were obtained from the breeding colony of Tel-Aviv University, Israel. Mice were used at 8-12 weeks of age. Animal care and experimentation was carried out in accordance with Tel-Aviv University guidelines.
Melanoma tumor cell line: The highly metastatic, poorly immunogenic B16-F10.9 (F10.9) subclone of the B16 melanoma cell line was used to generate melanoma tumors in mice (Eisenbach L. et al., 1984. Int J Cancer 34:567). Cells were maintained in DMEM supplemented with 100 U/ml penicillin, 100 μg/ml streptomycin, 4 mM glutamine, 1 mM sodium pyruvate, 1% non-essential amino acids and 10% heat-inactivated fetal calf serum (FCS); and were cultured at 37° C. in a humidified incubator in an atmosphere of 7% carbon dioxide and 93% air.
Tumor generation protocol: F10.9 tumors were induced in C57BL/6 mice by subcutaneous injection of 2×10^5 F10.9 cells. Mice were subjected to experimental treatments once tumors reached 5 mm in diameter (about 60-70 mm^3). Chemotherapeutic drugs: The following chemotherapeutic drugs used were: cis-platinum (II) diamminedichloride (cisplatin; #P-4394, Sigma, Israel), dissolved in PBS for injections; Taxol (Mead Johnson Oncology Products, A Bristol-Myers Squibb, USA), obtained as a sterile nonpyrogenic solution containing 6 mg/ml paclitaxel, 527 mg/ml of purified Cremophor EL (polyoxyethylated castor oil) and 5-FU (Abic, Israel).
Low-strength electric field enhanced cancer therapy protocol: Mice were subjected to a single treatment of LEFCT-EC, once tumors reached 5 mm in diameter (11-17 days following tumor cell inoculation). Volumes of up to 100 μl of chemotherapeutic agents were injected into tumor loci, and exposures to electric fields were carried out 3-4 min following intratumoral injection of chemotherapeutic agents. To expose tumors to electric fields, stainless steel electrode needles (Karlsbader insect pins No 0. BioQuip Products, USA) soldered at their brassy ends with thin isolated copper wires were used. Electrodes were inserted to a depth of about 7 mm percutaneously into and in the immediate vicinity of the tumor; one cathode needle in the center of the tumor and three peripheral anodes, at a distance of about 5 mm from the cathode. The needles were connected to an electric pulse generator (Grass S48 Stimulator, USA). The field strength applied was about 40 V/cm; the repetition frequency, 500 Hz; and the pulse width, 180 μs. All mice were anesthetized prior to LEF treatment.
Statistical analysis: Statistical analysis of survival times (Kaplan-Meir test), survival comparisons between groups (Mantel-Cox test) and tumor volume differences between groups (Kolmogorov-Smirnov test) were performed using StatSoft Statistica statistical software. The 10-15% mortality rate in the 5 days following LEF or LEF-chemotherapy was considered as treatment-caused, therefore such cases of mortality were excluded.
Tumor volume determination: performed as described above in Example 1 of the Examples section.

[2] = system: DA3 mammary adenocarcinoma; assay: LEFCT-EC in mice bearing DA3 mammary adenocarcinoma; type: in vivo, BALB/c mice
Method: Animals: BALB/c female mice between the ages of 8 to 12 weeks obtained from the breeding colony of Tel-Aviv University, Israel were used in vivo tumor therapy experiments. Animal care and experimentation was carried out in accordance with Tel-Aviv University guidelines.
Tumor cell line: The highly metastatic, poorly immunogenic mammary adenocarcinoma cell line DA3 (Lopez D M. et al., 1981. J Natl Cancer Inst. 66:191) was used to generate mammary carcinoma tumors in mice. Cells were grown in DMEM supplemented with 100 U/ml penicillin, 100 μg/ml streptomycin, 4 mM glutamine, 1 mM sodium pyruvate, 1% non-essential amino acids and 10% heat-inactivated fetal calf serum (FCS), and cultured at 37° C. in a humidified incubator in an atmosphere of 7% carbon dioxide and 93% air. Tumors of this cell line grown to 1 cm in diameter produce metastatic cells, mainly in the lungs.
Reagents: Taxol (Mead Johnson Oncology Products, A Bristol-Myers Squibb, USA), obtained as a sterile nonpyrogenic solution containing 6 mg/ml paclitaxel, 527 mg/ml of purified Cremophor EL (polyoxyethylated castor oil) and 49.7% (v/v) dehydrated ethanol; and bleomycin (MegaPharm, Israel) were the anti cancer drugs used.
Low-strength electric field enhanced cancer chemotherapy protocol: Mice were subjected to a single treatment of LEF-chemotherapy, once primary tumors reached 5 mm in diameter (about 60-70 mm^3) (11-17 days following subcutaneous tumor cell inoculation). Up to 100 μl of chemotherapeutic agents was injected into the tumor loci. The exposure to electric field was carried out as described above in Example 2 of the Examples section.
Effect of LEFCT-EC using bleomycin or taxol on the survival of DA3 mammary adenocarcinoma bearing nice: BALB/c mice bearing DA3 mammary adenocarcinoma were treated by LEF-chemotherapy with intratumoral taxol (20 mg/kg) (FIG. 19) or bleomycin (30 U/kg) (FIG. 20) administration and their survival rate was compared with that of mice treated only with LEF or chemotherapy.

Substance: bleomycin
- Tumor size (mean ± standard error) ([1]; LEF-CT (drug + LEF), cisplatin 4 mg/kg, bleomycin 8 U/kg, 5-FU 150 mg/kg, taxol 20 mg/kg): 573 ± 138 mm^3
- mean survival time (MST) ([1]; LEF-chemotherapy: intratumoral drug + LEF about 40 V/cm 12 min, 120 days (cisplatin) or 180 days (taxol, bleomycin) after inoculation): 48 days
- cure rate / animals alive and free of visible tumor ([1]; LEF-chemotherapy, 180 days after tumor inoculation): 8.2%
- mean survival time (MST) ([1]; chemotherapy alone, intratumoral, no LEF): 34.3 days
- Tumor size (mean ± standard error) ([1]; intratumoral drug injection alone, same doses): 2456 ± 220 mm^3
- LEFCT-EC treated mice that died two months and later after treatment with pulmonary metastatic foci, free of primary tumor ([1]; pooled statement for cisplatin, taxol or bleomycin): About 10%
- MST ([1]; route comparison: bleomycin 8 U/kg intraperitoneally + LEF): 34.6 days
- MST ([1]; route comparison: bleomycin 8 U/kg intratumorally + LEF): 46.6 days
- animals alive ([1]; route comparison: bleomycin 8 U/kg intratumorally + LEF, 180 days after tumor inoculation): 5%
- survival time, Mean ([2]; LEF-chemotherapy with the drug): 85.3
- survival time, Median ([2]; LEF-chemotherapy with the drug): 64.5
- cure rate ([2]; LEF-chemotherapy, intratumoral taxol 20 mg/kg or bleomycin 30 U/kg, 180 days after tumor inoculation): 30%
- survival time, Mean ([2]; drug alone, intratumoral): 40.2
- survival time, Median ([2]; drug alone, intratumoral): 37.5
